This note sets out measurements from patent publication US8299111B2, “Compounds which modulate the CB2 receptor” (Boehringer Ingelheim International GmbH, priority 2006, dated 2012).

T1 sequence (P34972 whole entry): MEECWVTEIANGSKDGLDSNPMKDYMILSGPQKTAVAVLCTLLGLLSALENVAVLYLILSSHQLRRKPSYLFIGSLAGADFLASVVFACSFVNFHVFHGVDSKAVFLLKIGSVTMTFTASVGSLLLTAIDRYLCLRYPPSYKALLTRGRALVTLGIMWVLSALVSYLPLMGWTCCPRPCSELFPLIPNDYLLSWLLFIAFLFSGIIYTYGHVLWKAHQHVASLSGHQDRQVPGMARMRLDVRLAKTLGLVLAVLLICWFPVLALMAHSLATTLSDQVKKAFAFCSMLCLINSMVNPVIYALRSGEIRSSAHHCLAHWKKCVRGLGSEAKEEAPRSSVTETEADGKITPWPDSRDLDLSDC

The experiment addresses T1, human CB2R (Homo sapiens, UniProt P34972).
T1 construct: host or cells: CHO cells
Briefly: CB2R mediated modulation of cAMP synthesis. Type of experiment: cell-based. Conditions: found through the use of the above described assays (binding and cAMP); CHO cells expressing human CB2R, forskolin-stimulated cAMP. In a few lines: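 CHO cells expressing human CB2R were treated for 30 min at 37 °C with compound in buffer containing 1 mM IBMX, 0.25% BSA and 10 uM forskolin. cAMP was measured after lysis. EC50 is the concentration giving 50% inhibition of forskolin-stimulated cAMP, scaled to the level set by 1 uM CP55940, fitted by four-parameter logistic.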
As for `Cc1ccnc(NC(=O)C(C)(C)S(=O)(=O)c2ccc(Cl)cc2)n1` [2-[(4-chlorophenyl)sulfonyl]-2-methyl-N-(4-methylpyrimidin-2-yl)propanamide], the agonistic activity result is listed as “agonistic activity”. Regarding `CC(C)(C(=O)Nc1nc2c(F)cccc2s1)S(=O)(=O)c1ccc(Cl)cc1` [2-[(4-chlorophenyl)sulfonyl]-N-(4-fluoro-1,3-benzothiazol-2-yl)-2-methylpropanamide], the agonistic activity result is “agonistic activity”. For `CC(C)(C(=O)Nc1nc2ccc(F)cc2s1)S(=O)(=O)c1ccc(Cl)cc1` [2-[(4-chlorophenyl)sulfonyl]-N-(6-fluoro-1,3-benzothiazol-2-yl)-2-methylpropanamide], the agonistic activity result was “agonistic activity”.

Consider `CC(C)(C(=O)Nc1ccc(C(F)(F)F)cc1F)S(=O)(=O)c1ccc(Cl)cc1` [2-[(4-chlorophenyl)sulfonyl]-N-[2-fluoro-4-(trifluoromethyl)phenyl]-2-methylpropanamide], for which the agonistic activity entry is reported as “agonistic activity”. Under `CC(C)(C(=O)Nc1ccc(C(F)(F)F)c(F)c1)S(=O)(=O)c1ccc(Cl)cc1` [2-[(4-chlorophenyl)sulfonyl]-N-[3-fluoro-4-(trifluoromethyl)phenyl]-2-methylpropanamide] stands “agonistic activity”. As for `CC(C)(C(=O)Nc1nc(-c2ccc(F)cc2)cs1)S(=O)(=O)c1ccc(Cl)cc1` [2-[(4-chlorophenyl)sulfonyl]-N-[4-(4-fluorophenyl)-1,3-thiazol-2-yl]-2-methylpropanamide], the agonistic activity entry is listed as “agonistic activity”. For `Cc1sc(NC(=O)C(C)(C)S(=O)(=O)c2ccc(Cl)cc2)nc1-c1ccc(F)cc1` [2-[(4-chlorophenyl)sulfonyl]-N-[4-(4-fluorophenyl)-5-methyl-1,3-thiazol-2-yl]-2-methylpropanamide], the agonistic activity result is on record as “agonistic activity”.

With `CC(C)(C(=O)Nc1ccc(F)c(C(F)(F)F)c1)S(=O)(=O)c1ccc(Cl)cc1` [2-[(4-chlorophenyl)sulfonyl]-N-[4-fluoro-3-(trifluoromethyl)phenyl]-2-methylpropanamide], the agonistic activity entry was “agonistic activity”.

For the molecule `CCCc1cc(NC(=O)C(C)(C)S(=O)(=O)c2ccc(OC)cc2)on1` [2-[(4-methoxyphenyl)sulfonyl]-2-methyl-N-(3-propylisoxazol-5-yl)propanamide], the agonistic activity entry is “agonistic activity”. Regarding `COc1ccc(S(=O)(=O)C(C)(C)C(=O)Nc2cccc(C(F)(F)F)n2)cc1` [2-[(4-methoxyphenyl)sulfonyl]-2-methyl-N-[6-(trifluoromethyl)pyridin-2-yl]propanamide], the agonistic activity entry was “agonistic activity”. Under `CCCc1cc(NC(=O)C(C)(C)S(=O)(=O)c2ccc(S(C)(=O)=O)cc2)on1` [2-methyl-2-{[4-(methylsulfonyl)phenyl]sulfonyl}-N-(3-propylisoxazol-5-yl)propanamide] stands “agonistic activity”. Under `CC(C)(C(=O)Nc1nc2c(s1)CCCC2)S(=O)(=O)c1ccc(S(C)(=O)=O)cc1` [2-methyl-2-{[4-(methylsulfonyl)phenyl]sulfonyl}-N-(4,5,6,7-tetrahydro-1,3-benzothiazol-2-yl)propanamide] stands “agonistic activity”; under `CC(C)(C(=O)Nc1cccc(C(F)(F)F)c1)S(=O)(=O)c1ccc(S(C)(=O)=O)cc1` [2-methyl-2-{[4-(methylsulfonyl)phenyl]sulfonyl}-N-[3-(trifluoromethyl)phenyl]propanamide], “agonistic activity”.

For the molecule `CC(C)(C(=O)Nc1nc(C(F)(F)F)cs1)S(=O)(=O)c1ccc(S(C)(=O)=O)cc1` [2-methyl-2-{[4-(methylsulfonyl)phenyl]sulfonyl}-N-[4-(trifluoromethyl)-1,3-thiazol-2-yl]propanamide], the agonistic activity entry is given as “agonistic activity”.
